# Assay results taken from ChEMBL document CHEMBL6121067, “Mitophagy in Neurodegenerative Diseases: Mechanisms of Action and the Advances of Drug Discovery” (J Med Chem, 2025).
# Legend:
# [1] = molecular target: T1, Ubiquitin carboxyl-terminal hydrolase 30 (Homo sapiens, UniProt Q70CQ3); assay: Inhibition of USP30 (unknown origin)
# T1 sequence (Q70CQ3 whole entry): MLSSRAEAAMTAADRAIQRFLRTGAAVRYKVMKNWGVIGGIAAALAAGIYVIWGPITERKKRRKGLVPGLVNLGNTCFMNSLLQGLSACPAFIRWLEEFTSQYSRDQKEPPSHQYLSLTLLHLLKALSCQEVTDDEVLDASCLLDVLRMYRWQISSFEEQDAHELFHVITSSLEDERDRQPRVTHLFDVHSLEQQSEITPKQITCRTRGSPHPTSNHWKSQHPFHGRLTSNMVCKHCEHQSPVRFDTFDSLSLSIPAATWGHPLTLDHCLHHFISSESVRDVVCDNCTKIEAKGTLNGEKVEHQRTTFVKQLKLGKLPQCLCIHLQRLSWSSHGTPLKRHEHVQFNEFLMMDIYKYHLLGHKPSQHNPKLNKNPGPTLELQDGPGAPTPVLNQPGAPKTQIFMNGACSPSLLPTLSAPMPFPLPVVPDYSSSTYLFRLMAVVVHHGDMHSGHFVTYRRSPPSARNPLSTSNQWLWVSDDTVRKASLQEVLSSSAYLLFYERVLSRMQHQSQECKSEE
# [2] = molecular target: Serine/threonine-protein kinase PINK1, mitochondrial (Homo sapiens, UniProt Q9BXM7); assay: Activation of full length recombinant PINK1 (unknown origin) extracted from Escherichia coli BL21 (DE3) by UV absorbance based analysis
# Serine/threonine-protein kinase PINK1, mitochondrial, sequence (Q9BXM7 whole entry): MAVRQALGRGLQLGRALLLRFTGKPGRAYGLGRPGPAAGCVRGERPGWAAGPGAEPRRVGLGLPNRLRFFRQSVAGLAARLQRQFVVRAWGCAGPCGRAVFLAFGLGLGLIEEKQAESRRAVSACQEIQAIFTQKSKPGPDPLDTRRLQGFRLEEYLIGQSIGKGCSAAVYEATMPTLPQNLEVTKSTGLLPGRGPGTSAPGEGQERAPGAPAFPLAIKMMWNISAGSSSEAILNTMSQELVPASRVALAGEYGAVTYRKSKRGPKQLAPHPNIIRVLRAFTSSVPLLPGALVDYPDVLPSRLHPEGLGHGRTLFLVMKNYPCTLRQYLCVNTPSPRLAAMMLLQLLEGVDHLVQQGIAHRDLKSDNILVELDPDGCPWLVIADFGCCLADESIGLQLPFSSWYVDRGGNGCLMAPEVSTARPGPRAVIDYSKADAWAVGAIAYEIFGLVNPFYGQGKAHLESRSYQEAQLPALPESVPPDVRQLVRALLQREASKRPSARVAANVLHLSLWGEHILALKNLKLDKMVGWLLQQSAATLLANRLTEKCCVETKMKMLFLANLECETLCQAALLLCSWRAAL
# [3] = Solubility of compound at pH 6.8 incubated for 4 hrs by HPLC or LC-MS/MS analysis; type: physicochemical; conditions: buffer
SMILES,IC50 [1] [nM],EC50 [2] [nM],solubility at 4 h [3] [µg/mL]
COc1cc(C(=O)N[C@@H]2CCN(C#N)C2)ccc1-c1cnn(C)c1,15,,
N#CN1CC[C@@H](NC(=O)N2CC(c3ccn(-c4ccccc4)n3)C2)C1,15,,
N#CN1CC[C@H](CNC(=O)c2cc(-c3cccc(Cl)c3)no2)C1,15,,
N#CN1CC[C@@H](NC(=O)c2cc(-c3ccccc3Oc3ccccc3)n[nH]2)C1,1.5,,
CCn1c(-c2ccc(OCC(=O)O)c(OC)c2)nc(-c2ccccc2)c1-c1ccccc1,5120,,
COc1cc(-c2nc(-c3ccccc3)c(-c3ccccc3)n2C2CC2)ccc1OCC(=O)O,8430,,

# Continued, values first:
IC50 [1] [nM],EC50 [2] [nM],solubility at 4 h [3] [µg/mL],SMILES
,2900,3.6,CC(C)[C@H]1Cn2ncc(-c3ccc(C(=O)N4CCCc5ccccc54)cc3)c2CN1C(=O)Cc1ccccc1
,1500,1.5,C[C@@H](C(=O)N1Cc2c(-c3ccc(C(=O)N4CCCc5ccccc54)cc3)cnn2C[C@@H]1C)c1ccccc1
,40,3.8,CO[C@@H](C(=O)N1Cc2c(-c3ccc(C(=O)N4CCCc5ccccc54)cc3)cnn2C[C@@H]1C(C)C)c1ccccc1
,14500,,CC(=O)N1Cc2c(-c3ccc(C(=O)N4CCCc5ccccc54)cc3)cnn2C[C@@H]1C
,150,65,CO[C@@H](C(=O)N1Cc2c(-c3ccc(C(=O)N4CCCc5ccccc54)cc3)cnn2C[C@@H]1C(C)C)c1cnn(C)c1
